Source: the NIST ThermoML archive (doi:10.1016/j.jct.2006.09.008)

Test: molar heat capacity at constant pressure; mn = molality of the nth substance listed, in mol/kg
Settings: 350 kPa, Liquid

O=[N+]([O-])[O-].O=[N+]([O-])[O-].[Sr+2] [strontium nitrate] + O
molar heat capacity at constant pressure [J/K/mol]
Settings	m1 = 0.0499	m1 = 0.1006	m1 = 0.2005	m1 = 0.4995	m1 = 0.7992	m1 = 0.9995	m1 = 1.502	m1 = 2.003	m1 = 3.001
338.15 K	75.26	75.15	74.98	74.72	74.71	74.82	75.37	76.3	78.36
343.15 K	75.32	75.21	75.04	74.78	74.77	74.87	75.41	76.33	78.38
348.15 K	75.39	75.27	75.11	74.85	74.83	74.93	75.46	76.36	78.41
353.15 K	75.46	75.34	75.18	74.91	74.89	74.98	75.5	76.4	78.43
358.15 K	75.54	75.42	75.25	74.98	74.95	75.04	75.55	76.44	78.47
363.15 K	75.62	75.5	75.33	75.06	75.02	75.11	75.6	76.48	78.52
368.15 K	75.71	75.59	75.42	75.14	75.09	75.17	75.65	76.53	78.57
373.15 K	75.81	75.69	75.51	75.22	75.17	75.24	75.71	76.59	78.64
378.15 K	75.92	75.8	75.61	75.31	75.25	75.32	75.78	76.65	78.72
383.15 K	76.04	75.91	75.72	75.4	75.33	75.4	75.85	76.72	78.82
388.15 K	76.16	76.03	75.83	75.5	75.42	75.49	75.93	76.8	78.94
393.15 K	76.3	76.16	75.95	75.61	75.52	75.58	76.02	76.89	79.07
